Experiments:
[1] = molecular target: T1, PKR WT (Homo sapiens, UniProt P30613); assay: PKR WT cell based AC50 assay; details: wild type PKR
[2] = molecular target: PKR R532W (Homo sapiens, UniProt P30613, R532W); assay: PKR Mutant Assay, AC50 against PKR R532W; format: biochemical; details: mutant PKR R532W enzyme
In short: (§1)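 PK-LDH coupled assay, RT. Enzyme + cpd + PEP/NADH/LDH, 60 min pre-incubation, no ADP. ADP 0.22-1.65 mM to initiate; A340 kinetic read. Cpd 11 pts, 3-fold, 100 μM top.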

[3] = molecular target: PKR R510Q (Homo sapiens, UniProt P30613, R510Q); assay: PKR Mutant Assay, AC50 against PKR R510Q; format: biochemical; details: mutant PKR R510Q enzyme
In short: as §1

[4] = molecular target: T1, PKR WT; assay: PKR WT enzymatic AC50 assay; format: biochemical; details: wild type PKR
In short: as §1

PKR R532W, sequence (P30613 whole entry R532W): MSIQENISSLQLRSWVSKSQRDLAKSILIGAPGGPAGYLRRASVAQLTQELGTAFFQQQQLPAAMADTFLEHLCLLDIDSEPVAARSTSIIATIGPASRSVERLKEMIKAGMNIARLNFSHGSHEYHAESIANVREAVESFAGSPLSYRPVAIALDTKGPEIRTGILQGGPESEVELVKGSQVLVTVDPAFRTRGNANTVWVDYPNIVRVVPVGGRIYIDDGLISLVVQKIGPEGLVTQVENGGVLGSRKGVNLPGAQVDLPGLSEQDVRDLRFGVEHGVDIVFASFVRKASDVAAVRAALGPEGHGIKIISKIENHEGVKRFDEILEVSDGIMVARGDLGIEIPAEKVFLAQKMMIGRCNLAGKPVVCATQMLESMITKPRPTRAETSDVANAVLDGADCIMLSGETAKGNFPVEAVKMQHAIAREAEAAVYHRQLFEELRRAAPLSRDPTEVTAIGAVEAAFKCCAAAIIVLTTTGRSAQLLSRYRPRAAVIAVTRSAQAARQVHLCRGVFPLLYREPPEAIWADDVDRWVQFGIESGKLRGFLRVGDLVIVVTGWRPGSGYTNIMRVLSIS
PKR R510Q, sequence (P30613 whole entry R510Q): as the sequence (P30613 whole entry R532W) above, with R510Q, W532R counted along it
T1 sequence (P30613 whole entry): as the sequence (P30613 whole entry R532W) above, with W532R counted along it

| AC50 [1] [µM] | AC50 [2] [µM] | AC50 [3] [µM] | AC50 [4] [µM] | SMILES |
| --- | --- | --- | --- | --- |
| < 0.1 | < 0.1 | < 0.1 | < 0.1 | CNc1nc2c(S(=O)(=O)Nc3ccc(C(=O)N4CCC(O)(CC(C)C)CC4)cc3)cccc2s1 [Compound 408, N-(4-(4-hydroxy-4-isobutylpiperidine-1-carbonyl)phenyl)-2-(methylamino)benzo[d]thiazole-4-sulfonamide] |
| 0.101 to 1 | < 0.1 | 0.101 to 1 | < 0.1 | O=C(c1ccc(NS(=O)(=O)c2cccc3scnc23)cc1)N1CCC(O)(Cc2ccccc2C(F)(F)F)CC1 [Compound 412, N-(4-(4-hydroxy-4-(2-(trifluoromethyl)benzyl)piperidine-1-carbonyl)phenyl)benzo[d]thiazole-4-sulfonamide] |
| < 0.1 | < 0.1 | 0.101 to 1 | < 0.1 | CCCC1(O)CCN(C(=O)c2ccc(NS(=O)(=O)c3cccc4cccnc34)cc2)CC1 [Compound 183, N-(4-(4-hydroxy-4-propylpiperidine-1-carbonyl)phenyl)quinoline-8-sulfonamide] |
| 0.101 to 1 | 0.101 to 1 | < 0.1 | < 0.1 | O=C(c1ccc(NS(=O)(=O)c2cccc3c(O)ncnc23)cc1)N1CCC(O)(/C=C/CC(F)(F)F)CC1 [Compound 424] |
| 0.101 to 1 | < 0.1 | 0.101 to 1 | < 0.1 | Cc1nc(C2(O)CCN(C(=O)c3ccc(NS(=O)(=O)c4cccc5cccnc45)cc3)CC2)ccc1F [Compound 171, N-(4-(4-(5-fluoro-6-methylpyridin-2-yl)-4-hydroxypiperidine-1-carbonyl)phenyl)quinoline-8-sulfonamide] |
| < 0.1 | < 0.1 | < 0.1 | < 0.1 | CC(C)CC1(C=O)CCN(C(=O)c2ccc(NS(=O)(=O)c3cccc4cccnc34)cc2)CC1 [Compound 137, N-(4-(4-formyl-4-isobutylpiperidine-1-carbonyl)phenyl)quinoline-8-sulfonamide] |
| < 0.1 | < 0.1 | 0.101 to 1 | < 0.1 | O=C(c1ccc(NS(=O)(=O)c2cccc3scnc23)cc1)N1CCC(O)(c2cccc(F)c2F)CC1 [Compound 178, N-(4-(4-(2,3-difluorophenyl)-4-hydroxypiperidine-1-carbonyl)phenyl)benzo[d]thiazole-4-sulfonamide] |
| < 0.1 | < 0.1 | 0.101 to 1 | < 0.1 | O=C(c1ccc(NS(=O)(=O)c2cccc3c(O)ncnc23)cc1)N1CCC(O)(c2cccc(F)c2F)CC1 [Compound 428] |
| < 0.1 | < 0.1 | 0.101 to 1 | < 0.1 | O=C(c1ccc(NS(=O)(=O)c2cccc3cccnc23)cc1)N1CCC(O)(c2cccc(C(F)(F)F)n2)CC1 [Compound 174, N-[4-[4-hydroxy-4-[6-(trifluoromethyl)pyridin-2-yl]piperidine-1-carbonyl]phenyl]quinoline-8-sulfonamide] |
| < 0.1 | < 0.1 | < 0.1 | < 0.1 | CC(C)CC1(O)CCN(C(=O)c2ccc(NS(=O)(=O)c3cccc4cccnc34)cc2)CC1 [Compound 140, N-(4-(4-hydroxy-4-isobutylpiperidine-1-carbonyl)phenyl)quinoline-8-sulfonamide] |
| 0.101 to 1 | 0.101 to 1 | 0.101 to 1 | 0.101 to 1 | Cc1nc(F)ccc1C1(O)CCN(C(=O)c2ccc(NS(=O)(=O)c3ccc(F)c4cccnc34)cc2)CC1 [Compound 229, 5-fluoro-N-(4-(4-(6-fluoro-2-methylpyridin-3-yl)-4-hydroxypiperidine-1-carbonyl)phenyl)quinoline-8-sulfonamide] |
| < 0.1 | < 0.1 | < 0.1 | < 0.1 | CC(C)(C)CC1(O)CCN(C(=O)c2ccc(NS(=O)(=O)c3cccc4scnc34)cc2)CC1 [Compound 134, N-(4-(4-hydroxy-4-neopentylpiperidine-1-carbonyl)phenyl)benzo[d]thiazole-4-sulfonamide] |
| < 0.1 | < 0.1 | 0.101 to 1 | < 0.1 | O=C(c1ccc(NS(=O)(=O)c2cccc3nccnc23)cc1)N1CCC(O)(c2ccccc2Cl)CC1 [Compound 162, N-(4-(4-(2-chlorophenyl)-4-hydroxypiperidine-1-carbonyl)phenyl)quinoxaline-5-sulfonamide] |
| 0.101 to 1 | < 0.1 | 0.101 to 1 | 0.101 to 1 | Cn1cc(CC2(O)CCN(C(=O)c3ccc(NS(=O)(=O)c4cccc5scnc45)cc3)CC2)cn1 [Compound 434] |
| < 0.1 | < 0.1 | < 0.1 | < 0.1 | O=C(c1ccc(NS(=O)(=O)c2cccc3cccnc23)cc1)N1CCC(O)(Cc2ccccc2C(F)(F)F)CC1 [Compound 109, N-(4-(4-hydroxy-4-(2-(trifluoromethyl)benzyl)piperidine-1-carbonyl)phenyl)quinoline-8-sulfonamide] |

Second part, the molecule before the results:

| SMILES | AC50 [1] [µM] | AC50 [2] [µM] | AC50 [3] [µM] | AC50 [4] [µM] |
| --- | --- | --- | --- | --- |
| Cc1cc(C(=O)N2CCC(O)(c3cccc(F)c3F)CC2)ccc1NS(=O)(=O)c1ccc(F)c2cccnc12 [Compound 220, N-(4-(4-(2,3-difluorophenyl)-4-hydroxypiperidine-1-carbonyl)-2-methylphenyl)-5-fluoroquinoline-8-sulfonamide] | 1.01 to 10 | < 0.1 | 0.101 to 1 | < 0.1 |
| O=C(c1ccc(NS(=O)(=O)c2cccc3cccnc23)cc1OC(F)(F)F)N1CCC(O)(c2ccccc2Cl)CC1 [Compound 136, N-(4-(4-(2-chlorophenyl)-4-hydroxypiperidine-1-carbonyl)-3-(trifluoromethoxy)phenyl)quinoline-8-sulfonamide] | < 0.1 | < 0.1 | < 0.1 | < 0.1 |
| Nc1nc2c(S(=O)(=O)Nc3ccc(C(=O)N4CCC(O)(c5ccccc5Cl)CC4)cc3)cc(F)cc2s1 [Compound 154, 2-amino-N-(4-(4-(2-chlorophenyl)-4-hydroxypiperidine-1-carbonyl)phenyl)-6-fluorobenzo[d]thiazole-4-sulfonamide] | < 0.1 | < 0.1 | < 0.1 | < 0.1 |
| O=C(c1ccc(NS(=O)(=O)c2cccc3cccnc23)cc1)N1CCC(O)(Cc2cccc(F)c2)CC1 [Compound 105, N-(4-(4-(3-fluorobenzyl)-4-hydroxypiperidine-1-carbonyl)phenyl)quinoline-8-sulfonamide] | < 0.1 | < 0.1 | < 0.1 | < 0.1 |
| Cc1cc(C(=O)N2CCC(O)(c3ccccc3Cl)CC2)ccc1NS(=O)(=O)c1cccc2nccnc12 [Compound 119, N-(4-(4-(2-chlorophenyl)-4-hydroxypiperidine-1-carbonyl)-2-methylphenyl)quinoxaline-5-sulfonamide] | < 0.1 | < 0.1 | < 0.1 | < 0.1 |
| O=C(c1ccc(NS(=O)(=O)c2cccc3cccnc23)cc1F)N1CCC(O)(Cc2ccccc2)CC1 [Compound 115, N-(4-(4-benzyl-4-hydroxypiperidine-1-carbonyl)-3-fluorophenyl)quinoline-8-sulfonamide] | < 0.1 | < 0.1 | < 0.1 | < 0.1 |
| CS(=O)(=O)c1ccccc1C1(O)CCN(C(=O)c2ccc(NS(=O)(=O)c3cccc4cccnc34)cc2)CC1 [Compound 192, N-[4-[4-hydroxy-4-(2-methylsulfonylphenyl)piperidine-1-carbonyl]phenyl]quinoline-8-sulfonamide] | < 0.1 | < 0.1 | 1.01 to 10 | < 0.1 |
| COc1cccc(CC2(O)CCN(C(=O)c3ccc(NS(=O)(=O)c4cccc5cccnc45)cc3)CC2)c1 [Compound 135, N-(4-(4-hydroxy-4-(3-methoxybenzyl)piperidine-1-carbonyl)phenyl)quinoline-8-sulfonamide] | < 0.1 | < 0.1 | 0.101 to 1 | < 0.1 |
| Cc1cccc(CC2(O)CCN(C(=O)c3ccc(NS(=O)(=O)c4cccc5cccnc45)cc3)CC2)c1 [Compound 118, N-(4-(4-hydroxy-4-(3-methylbenzyl)piperidine-1-carbonyl)phenyl)quinoline-8-sulfonamide] | < 0.1 | < 0.1 | 0.101 to 1 | < 0.1 |
| O=C(c1ccc(NS(=O)(=O)c2cccc3cccnc23)cc1)N1CCC(O)(Cc2ccccc2)CC1 [Compound 131, N-(4-(4-benzyl-4-hydroxypiperidine-1-carbonyl)phenyl)quinoline-8-sulfonamide] | < 0.1 | < 0.1 | < 0.1 | < 0.1 |
| CCc1ccccc1C1(O)CCN(C(=O)c2ccc(NS(=O)(=O)c3cccc4cccnc34)cc2)CC1 [Compound 127, N-(4-(4-(2-ethylphenyl)-4-hydroxypiperidine-1-carbonyl)phenyl)quinoline-8-sulfonamide] | < 0.1 | < 0.1 | < 0.1 | < 0.1 |
| O=C(c1ccc(NS(=O)(=O)c2cccc3ccc(F)nc23)cc1)N1CCC(O)(c2ccccc2Cl)CC1 [Compound 224, N-(4-(4-(2-chlorophenyl)-4-hydroxypiperidine-1-carbonyl)phenyl)-2-fluoroquinoline-8-sulfonamide] | 0.101 to 1 | < 0.1 | 1.01 to 10 | < 0.1 |

From patent publication US9108921B2, “Therapeutic compounds and compositions” (AGIOS PHARMACEUTICALS, INC, priority 2014, dated 2015)
